Data: patent publication US9163012B2, “Carbamate and urea inhibitors of 11β-hydroxysteroid dehydrogenase 1” (Vitae Pharmaceuticals, Inc., priority 2009, dated 2015)
Values joined by “and” are separate entries in the source; they are usually repeats but may differ in a detail not shown here. Identical values can stand only once. Like-named read-outs stand apart in the source and are kept apart here.

Biological target: 11β-HSD1 (Homo sapiens (Human), UniProt P28845)
Experiment: Biological Test Example 1: inhibition of a microsomal preparation of 11β-HSD1 (SPA)
Format: biochemical
Conditions: for inhibition at 0.111 µM: read-out: Average % inhibition at 111 nM
Protocol: All reactions were carried out at rt in 96 well clear flexible PET Microbeta plates (PerkinElmer). […] After a 10 minute pre-incubation, 50 μL of enzyme solution containing microsomes isolated from CHO cells overexpressing human 11-HSD1 (10-20 μg/ml of total protein) was added, and the plates were incubated for 90 minutes at rt. The reaction was stopped by adding 50 μl of the SPA beads suspension containing 10 μM […], 5 mg/ml protein A coated YSi SPA beads (GE Healthcare) and 3.3 μg/ml of anti-cortisol antibody (East Coast Biologics) in Superblock buffer (Bio-Rad). The plates were shaken for 120 minutes at rt, and the SPA signal corresponding to [^3H]cortisol was measured on a Microbeta plate reader.

[1] = Biological Test Example 1, 100 nM compound
[2] = Biological Test Example 1, microsomes from CHO cells overexpressing human 11β-HSD1, read-out: IC50 Range
[3] = Biological Test Example 1, read-out: IC50
[4] = read-out: Average % inhibition at 100 nM, Biological Test Example 1, 100 nM compound
[5] = Biological Test Example 1, 111 nM compound

11β-HSD1, sequence (P28845 whole entry): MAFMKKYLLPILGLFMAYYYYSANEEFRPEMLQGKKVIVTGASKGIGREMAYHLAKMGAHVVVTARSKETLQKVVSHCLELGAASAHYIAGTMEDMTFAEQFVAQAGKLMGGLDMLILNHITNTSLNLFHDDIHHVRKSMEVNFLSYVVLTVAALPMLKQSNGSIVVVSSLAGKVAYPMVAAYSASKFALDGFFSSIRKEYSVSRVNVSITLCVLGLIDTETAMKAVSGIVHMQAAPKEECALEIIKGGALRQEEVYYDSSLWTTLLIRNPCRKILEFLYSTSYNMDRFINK

Compound | IC50 [2] [nM] | IC50 [3] | inhibition at 0.1 µM [4] [%] | other results
NC(=O)C12CC3CC(C1)C(OC(=O)N1CCC(c4nccc(C(F)(F)F)n4)C1)C(C3)C2 (single isomer, unassigned) [EXAMPLE 48 Isomer 2, cis-1-carbamoyl-4-adamantyl 3-(4-(trifluoromethyl)pyrimidin-2-yl)pyrrolidine-1-carboxylate] | – | – | – | Average % inhibition at 100 nM [1]: 16.1%
Cn1ccc(-c2cnc(C3CCN(C(=O)OC4C5CC6CC4CC(C(N)=O)(C6)C5)C3)nc2)cc1=O (single isomer, unassigned) [EXAMPLE 57 Isomer 2, 1-carbamoyl-4-adamantyl 3-(5-(1-methyl-2-oxo-1,2-dihydropyridin-4-yl)pyrimidin-2-yl)pyrrolidine-1-carboxylate] | > 100 | > 100 nM | 18.1 | –
Cn1cc(-c2cnc(C3CCN(C(=O)OC4C5CC6CC4CC(C(N)=O)(C6)C5)C3)nc2)ccc1=O (single isomer, unassigned) [EXAMPLE 58 Isomer 1, trans-1-carbamoyl-4-adamantyl 3-(5-(1-methyl-6-oxo-1,6-dihydropyridin-3-yl)pyrimidin-2-yl)pyrrolidine-1-carboxylate] | < 100 | 33.3 nM | – | Average % inhibition at 100 nM [1]: 69.4%
Cn1cc(-c2cnc(C3CCN(C(=O)OC4C5CC6CC4CC(C(N)=O)(C6)C5)C3)nc2)ccc1=O (single isomer, unassigned) [EXAMPLE 58 Isomer 2, 1-carbamoyl-4-adamantyl 3-(5-(1-methyl-6-oxo-1,6-dihydropyridin-3-yl)pyrimidin-2-yl)pyrrolidine-1-carboxylate] | > 100 | > 100 nM | – | Average % inhibition at 100 nM [1]: 3.8%
Cn1ccc(-c2cnc(C3CCN(C(=O)OC4C5CC6CC4CC(C(N)=O)(C6)C5)C3)nc2)cc1=O (single isomer, unassigned; isomer 1) [EXAMPLE 57 Isomer 1, trans-1-carbamoyl-4-adamantyl 3-(5-(1-methyl-2-oxo-1,2-dihydropyridin-4-yl)pyrimidin-2-yl)pyrrolidine-1-carboxylate] | – | – | – | Average % inhibition at 100 nM: 65.0%; IC50 (read-out: IC50): 50.5 nM; IC50 (read-out: IC50 Range): < 100 nM
Cc1nc2cc(F)ccc2n1C1CCN(C(=O)OC2C3CC4CC2CC(C(N)=O)(C4)C3)C1 (single isomer, unassigned; isomer 1) [EXAMPLE 74 Isomer 1] | – | – | – | Average % inhibition at 100 nM: 91.9%; IC50 (read-out: IC50): 2.22 nM; IC50 (read-out: IC50 Range): < 100 nM
Cc1nc2cc(F)ccc2n1C1CCN(C(=O)OC2C3CC4CC2CC(C(N)=O)(C4)C3)C1 (single isomer, unassigned; isomer 2) [EXAMPLE 74 Isomer 2] | – | – | – | Average % inhibition at 100 nM: 83.2%; IC50 (read-out: IC50): 16.6 nM; IC50 (read-out: IC50 Range): < 100 nM
NC(=O)[C@]12CC3CC(C1)[C@@H](OC(=O)N1CC[C@H](Oc4ncc(F)cc4F)C1)C(C3)C2 [EXAMPLE 2, (S)-(trans-(1-carbamoyl-4-adamantyl)) 3-(3,5-difluoropyridin-2-yloxy)pyrrolidine-1-carboxylate] | < 100 | 0.68 nM | 96.2 | –
NC(=O)[C@]12CC3CC(C1)[C@@H](OC(=O)N1CC[C@@H](Oc4ccc5nccn5n4)C1)C(C3)C2 [EXAMPLE 3, (R)-(trans-(1-carbamoyl-4-adamantyl)) 3-(imidazo[1,2-b]pyridazin-6-yloxy)pyrrolidine-1-carboxylate] | < 100 | 6.39 nM | 92.1 | –
O=C(O[C@H]1C2CC3CC1C[C@](O)(C3)C2)N1CC[C@@H](Oc2ccc(C(F)(F)F)cn2)C1 [EXAMPLE 4, (R)-(trans-(1-hydroxy-4-adamantyl)) 3-(5-(trifluoromethyl)pyridin-2-yloxy)pyrrolidine-1-carboxylate] | < 100 | 2.63 nM | 90.3 | –
NC(=O)[C@]12CC3CC(C1)[C@@H](OC(=O)N1CC[C@@H](Oc4ccc(C(F)(F)F)cn4)C1)C(C3)C2 [EXAMPLE 5, (R)-(trans-(1-carbamoyl-4-adamantyl)) 3-(5-(trifluoromethyl)pyridin-2-yloxy)pyrrolidine-1-carboxylate] | < 100 | 0.99 nM | 94.9 | –
NC(=O)[C@]12CC3CC(C1)[C@@H](OC(=O)N1CC[C@H](Oc4ccc(C(F)(F)F)cn4)C1)C(C3)C2 [EXAMPLE 6, (S)-(trans-(1-carbamoyl-4-adamantyl)) 3-(5-(trifluoromethyl)pyridin-2-yloxy)pyrrolidine-1-carboxylate] | < 100 | 0.54 nM | 96.9 | –
COC(=O)C1(c2ccccc2)CCN(C(=O)OC2C3CC4CC(C3)CC2C4)CC1 (centres unmarked) [EXAMPLE 11, 1-(2-adamantyl) 4-methyl 4-phenylpiperidine-1,4-dicarboxylate] | – | – | – | IC50 (IC50 Range): < 100 nM; inhibition at 0.111 µM: 86.3%; IC50 (read-out: IC50): 6.65 nM
CCOC(=O)C1(Cc2ccccc2OC)CCCN(C(=O)OC2C3CC4CC(C3)CC2C4)C1 (centres unmarked) [EXAMPLE 14, 1-(2-adamantyl) 3-ethoxycarbonyl-3-(2-methoxybenzyl)piperidine-1-carboxylate] | < 100 | – | – | inhibition at 0.111 µM: 87.6%; IC50 (read-out: IC50): 7.15 nM
COC(=O)COCC1(c2ccccc2)CCN(C(=O)OC2C3CC4CC(C3)CC2C4)CC1 (centres unmarked) [EXAMPLE 15, 2-adamantyl 4-((2-methoxy-2-oxoethoxy)methyl)-4-phenylpiperidine-1-carboxylate] | < 100 | 5.39 nM | – | inhibition at 0.111 µM [5]: 80.6%
O=C(O)COCC1(c2ccccc2)CCN(C(=O)OC2C3CC4CC(C3)CC2C4)CC1 (centres unmarked) [EXAMPLE 16, 2-((1-(2-adamantyloxycarbonyl)-4-phenylpiperidin-4-yl)methoxy)acetic acid] | < 100 | 43.8 nM | – | inhibition at 0.111 µM [5]: 72.3%
Cn1c(=O)ccc2cc(C3CCN(C(=O)OC4C5CC6CC(C5)CC4C6)C3)ccc21 (centres unmarked) [EXAMPLE 17, 2-adamantyl 3-(1-methyl-2-oxo-1,2-dihydroquinolin-6-yl)pyrrolidine-1-carboxylate] | < 100 | 1.96 nM | 94.2 | –
O=C(O)c1ccc(C2CCCN(C(=O)OC3C4CC5CC(C4)CC3C5)C2)cc1 (centres unmarked) [EXAMPLE 18, 4-(1-(2-adamantyloxycarbonyl)piperidin-3-yl)benzoic acid] | < 100 | 27.8 nM | – | inhibition at 0.111 µM [5]: 82.2%
NC(=O)[C@]12CC3CC(C1)[C@@H](OC(=O)N1CCCC1c1ccccn1)C(C3)C2 (stereo partly drawn) [EXAMPLE 19, trans-1-carbamoyl-4-adamantyl 2-(pyridin-2-yl)pyrrolidine-1-carboxylate] | < 100 | 6.74 nM | – | inhibition at 0.1 µM (read-out: Average % inhibition at 100 nM): 93.2%
O=C(OC1C2CC3CC1CC(O)(C3)C2)N1CCC(c2ccncc2)C1 (centres unmarked) [EXAMPLE 21, 1-hydroxy-4-adamantyl 3-(pyridin-4-yl)pyrrolidine-1-carboxylate] | < 100 | 20.8 nM | 81.4 | –
O=C(OC1C2CC3CC1CC(O)(C3)C2)N1CCC(c2cc[n+]([O-])cc2)C1 (centres unmarked) [EXAMPLE 22, 4-(1-((1-hydroxy-4-adamantyloxy)carbonyl)pyrrolidin-3-yl)pyridine 1-oxide] | > 100 | 100 nM | 3.7 | –
Cc1noc(C2CCN(C(=O)O[C@H]3C4CC5CC3C[C@](C(N)=O)(C5)C4)C2)n1 (stereo partly drawn) [EXAMPLE 23, trans-1-carbamoyl-4-adamantyl 3-(3-methyl-1,2,4-oxadiazol-5-yl)pyrrolidine-1-carboxylate] | < 100 | 17.6 nM | 79.3 | –
Cc1nnc(C2CCCN(C(=O)OC3C4CC5CC3CC(O)(C5)C4)C2)o1 (centres unmarked) [EXAMPLE 25, 1-hydroxy-4-adamantyl 3-(5-methyl-1,3,4-oxadiazol-2-yl)piperidine-1-carboxylate] | < 100 | 39.5 nM | 69.9 | –
Cn1c(=O)n([C@@H]2CCN(C(=O)O[C@H]3C4CC5CC3C[C@](C(N)=O)(C5)C4)C2)c2ncc(Cl)cc21 [EXAMPLE 29, (R) (trans-1-carbamoyl-4-adamantyl) 3-(6-chloro-1-methyl-2-oxo-1H-imidazo[4,5-b]pyridin-3(2H)-yl)pyrrolidine-1-carboxylate] | < 100 | 1 nM | 99.2 | –
O=C(OC1C2CC3CC(C2)CC1C3)N1CCC(CO)(c2ccccc2)CC1 (centres unmarked) [EXAMPLE 30, 2-adamantyl 4-(hydroxymethyl)-4-phenylpiperidine-1-carboxylate] | < 100 | 13.2 nM and 4.44 nM | 87.4 | inhibition at 0.063 µM (Biological Test Example 1, Dose = 63 nM): 80.1%
Cn1c(C2CCN(C(=O)O[C@H]3C4CC5CC3C[C@](C(N)=O)(C5)C4)C2)nc2ccccc21 (stereo partly drawn) [EXAMPLE 31, (trans-1-carbamoyl-4-adamantyl) 3-(1-methyl-1H-benzo[d]imidazol-2-yl)pyrrolidine-1-carboxylate] | < 100 | 91.7 nM | 44.1 | –
Cn1c(C2CCCN2C(=O)OC2C3CC4CC2CC(C(N)=O)(C4)C3)nc2ccccc21 (centres unmarked) [EXAMPLE 32, (1-carbamoyl-4-adamantyl) 2-(1-methyl-1H-benzo[d]imidazol-2-yl)pyrrolidine-1-carboxylate] | < 100 | 1.08 nM | 94.7 | –
O=C(OC1C2CC3CC(C2)CC1C3)N1CCC(c2ncc(Cl)cn2)C1 (centres unmarked) [EXAMPLE 34, 2-adamantyl 3-(5-chloropyrimidin-2-yl)pyrrolidine-1-carboxylate] | < 100 | 0.52 nM | 96.8 | –
